Values belong to the molecule of their own block, whether it stands above or below them.
Columns and labels:
[1] = tested on: U-251 cells; test: Mitochondrial membrane potential (JC-1 staining), U-251 cells; assay type: cell-based, human; conditions: 60 μM, 24 hour treatment
[2] = tested on: phospho-H2AX (Ser139); test: Phospho-H2AX Western blot, U-251 cells; assay type: cell-based, human; conditions: 60 μM, 0.5, 2 or 24 hours, peak after 2 hours
Experimental: Cell lysates or acid extracted histones were solubilized in a concentrated (×4) loading buffer (62.5 mM Tris-HCl, pH 6.8, 1% SDS, 10% glycerol v/v, 1% dithiothreitol (DTT) and 0.1 mg/ml bromophenol blue). Proteins (10-40 μg) were run on SDS-PAGE, transferred to a nitrocellulose membrane (Schleicher & Schuell, Germany) and probed with the primary antibodies, followed by incubation with a horseradish peroxidase (HRP)-goat anti-rabbit IgG or HRP-rabbit anti-mouse IgG as secondary antibodies. HRP bound to the secondary antibodies was visualized by the enhanced chemiluminescence method using the Western Blotting Luminol reagent (Santa Cruz, Calif., USA). The membrane was exposed for 5 minutes to Chemiluminescence BioMax light film (Kodak, USA) and the intensity of the bands was measured with a VersaDoc instrument with a Quantityl program (Bio-Rad, USA). The fold increase of each specific protein was determined by the ratio of band intensities of treated and untreated cells, normalized to loading control (actin or total histone H3).

[3] = Acute toxicity assay in mice; assay type: in vivo; conditions: male, mouse, in vivo; single per os dose, ICR mice
Excerpt: (§1) Male ICR mice, 8 weeks old (Harlan, Israel) were acclimated for 10 days before administration of the tested compounds. The animals were monitored for two weeks and weighed three times per week.

[4] = tested on: ICR mice; test: Acute toxicity assay in mice; assay type: in vivo; conditions: 2 weeks
Excerpt: as §1

[5] = tested on: 3LLD122 Lewis lung carcinoma; test: Metastatic Lewis lung carcinoma (3LL) model; assay type: in vivo, mice; conditions: Compound 6 30 mg/kg, Compound 7 25 mg/kg, per os thrice per week, 21 days; p<0.02 vs acyclovir
Experimental: Female C57/BL mice, 7-10 weeks old, were acclimated for ten days. All in vivo experiments were conducted according to the NIH Laboratory Animal Care Guidelines and in accordance with the guidelines and approval of the Tel Aviv University Committee for Animal Experimentation.
The subclone 3LLD122 of 3LL used in the study was selected for its aggressive and invasive nature. […] The animals were sacrificed after 21 days of treatment, their lungs were weighed, stained with Bouin's fixative and the metastatic lesions were scored double-blindly.

[6] = tested on: 4T1 murine breast carcinoma; test: Metastatic 4T1 breast carcinoma model; assay type: in vivo, mice; conditions: 4T1 model; for anti-cancer activity (number of metastases and lung weight): 40 or 80 mg/kg, FIG. 18
Experimental: The syngeneic murine breast carcinoma metastatic model was performed with 8-10 weeks old BALB-c mice implanted with 4T1 cells. When the tumor volume reached 75-180 mm^3 (after ˜10 days), treatment was initiated for an additional 21 days. At termination, the animals were sacrificed and their lungs removed, stained with Bouin's solution, and lung lesions were scored under an illuminated magnifying glass.

[7] = tested on: acetylated histone H4; test: In vivo histone H4 acetylation in 4T1 tumors (Western blot); set-up: species or system mice; conditions: 100 mg/kg each, 4 hours after treatment, vs vehicle
Experimental: For the determination of in vitro histone acetylation, 2.5-3×10^6 cells, seeded in 100 mm culture dishes, were supplemented with RPMI medium containing 10% heat inactivated FCS and were treated with the drugs the following day. At the specified times post-treatment, the cells were removed with a rubber policeman, centrifuged, washed, lysed with lysis buffer (PBS, Nonidet® NP-40 1%, sodium deoxycholate 0.5%, sodium dodecyl sulfate (SDS) 0.1%, 1 mM phenylmethylsulfonyl fluoride (PMSF), 1 mM sodium orthovanadate, and 1 μM each of leupeptin and pepstatin) and centrifuged at 10,000 g for 10 minutes at 4° C. […] The extract was then lyophilized, and protein concentration was determined with a BCA kit (Pierce, USA). […] The fold increase of acetylated histones was determined by the ratio of band intensities of treated and untreated cells or mice, normalized to loading control (total histone H3).
Cell lysates or acid extracted histones were solubilized in a concentrated (×4) loading buffer (62.5 mM Tris-HCl, pH 6.8, 1% SDS, 10% glycerol v/v, 1% dithiothreitol (DTT) and 0.1 mg/ml bromophenol blue). […] The membrane was exposed for 5 minutes to Chemiluminescence BioMax light film (Kodak, USA) and the intensity of the bands was measured with a VersaDoc instrument with a Quantityl program (Bio-Rad, USA). […]

[8] = tested on: U-251 cells; test: Hoechst viability assay, U-251 glioma cells; assay type: cell-based, human; conditions: Homo sapiens, 72 hours, Hoechst, read-out: IC50
Experimental: (§2) Cells (in quadruplicate) at the specified density were suspended in 200 μL medium supplemented with 10% FCS seeded in 96-well plates for 24 hours, then exposed to the drugs for 72 hours. The viability of the cells was determined by Hoechst fluorescent assay as described by Nudelman et al., 2005. Leukemic cell viability after 72 hours of treatment was determined by an MTT (3-(4,5-dimethylthiazol-2-yl)-2,5-diphenyltetrazolium bromide) assay as described by Levovich et al., 2007.
(§3) IC50 values were determined by linear regression of the percentage of survival following drug titration.

[9] = tested on: 22RV1 cells; test: Hoechst viability assay, 22RV1 prostate carcinoma cells; assay type: cell-based, human; conditions: Homo sapiens, 72 hours, Hoechst, read-out: IC50
Experimental: as §2, §3

[10] = tested on: U-251 cells; test: Apoptosis/cell death by annexin V-FITC and propidium iodide FACS, U-251 cells; assay type: cell-based; conditions: U-251 cells, 24 hours
Experimental: Cells were seeded in six-well plates (10^5 cells/well) for 24 hours and were then treated as specified, trypsinized, washed with PBS, double-stained with annexin V-FITC (fluorescein isothiocyanate) and propidium iodide, according to the manufacturer's instructions and subjected to flow cytometry analysis (FACScalibur cytometer, Becton Dickinson).

[11] = tested on: U-251 cells; test: Reactive oxygen species by DCF-DA FACS, U-251 cells; assay type: cell-based, human; conditions: 2 hour treatment
Experimental: ROS levels were determined by FACS analysis of U-251 cells treated with dichlorodihydrofluorescein diacetate (DCF-DA), which becomes fluorescent when oxidized.

[12] = target: T1, proteasome (Homo sapiens, UniProt P28074); test: Proteasome activity assay, U-251 cells; assay type: cell-based; conditions: 4 or 24 hours, alone or in combination
T1 construct: proteasome activity in U-251 cells treated for 4 or 24 hours; endogenous in cells; host or cells: U-251 cells (lysates of treated cells)
T1 sequence (P28074 60-263): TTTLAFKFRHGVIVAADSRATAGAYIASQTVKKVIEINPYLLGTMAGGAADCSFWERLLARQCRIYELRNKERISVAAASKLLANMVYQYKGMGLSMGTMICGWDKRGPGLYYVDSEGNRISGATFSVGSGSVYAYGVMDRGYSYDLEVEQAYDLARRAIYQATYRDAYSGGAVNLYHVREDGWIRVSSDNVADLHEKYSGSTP
Experimental: The peptidase or chymotrypsin-like activity of the proteasome was assayed using N-succinyl-Leu-Leu-Val-Tyr-7-amido-4-methylcoumarin. The lysates (100 μL) were incubated with 13 (M of the substrate in 100 mM Tris, pH 7.5, for 1 hour with shaking at room temperature. The reaction was stopped by addition of ice-cold ethanol, and the samples were centrifuged for 5 minutes at 2500 g. The supernatants were collected and the fluorescence was measured with excitation/emission filters of 390/460 nm using the FluoStar fluorimeter. The protein concentration was determined using a BCATM kit (Pierce) and the proteasome activity was derived from the ratio of fluorescence at 460 nm/(g of protein. The percentage of proteasome activity was calculated relative to untreated cells.

[13] = tested on: U-251 cells; test: Cell cycle analysis (propidium iodide flow cytometry), U-251 cells; assay type: cell-based, human; conditions: 24 hours
Experimental: Cells (4×10^5) were seeded in 35 mm culture dishes and after 24 hours were starved in medium without serum for an additional 24 hours, and then treated with the drug for an additional 24 hours. The cells were then trypsinized to a single cell suspension in PBS, washed, and resuspended in PBS at a concentration of 10^6 cells/mL. The cells were fixed with 70% ethanol for 30 minutes at 4° C., centrifuged and resuspended in 1 ml PBS containing 0.1% Tween 20 and 0.05% bovine serum albumin (BSA). RNase free of DNase was added, and the cell suspension (10^6 cells) was incubated at […] for 30 minutes. The cell suspension was then chilled on ice to a temperature in the range of 2 to 8° C. Propidium iodide (50 μg/mL) was added to the cell suspension, which was than kept in the dark. Red fluorescence (>630 nm) was analyzed on the flow cytometer.

[14] = tested on: rat primary cardiomyocytes; test: ROS production (DCF-DA) in rat primary cardiomyocytes; assay type: cell-based; conditions: 2 μM
Experimental: Neonatal rat ventricular cardiomyocytes were isolated and cultured in collagen coated culture dishes as described by Shalitin et al., 1996. Growth medium contained DMEM:Ham's F12 (1:1), fetal calf serum (10%) and antibiotics. Treatment was administered to spontaneously beating cardiomyocytes 48 hours after plating.

[15] = tested on: 4T1 cells; test: Hoechst viability assay, 4T1 breast carcinoma cells (Dox combination); assay type: cell-based, murine; conditions: Mus musculus, 72 hours, 3 experiments
Experimental: as §2, §3
The combination index for drug interaction was calculated by Chou's Median Effect Analysis (MEA) [Chou, 2006]. The combination index (CI) was defined as CI=D1/(DM)1+D2/(DM)2, where D1 and D2 are the doses of drug 1 and drug 2, respectively, (DM)1 and (DM)2 are the doses of drug 1 and drug 2 and their mixture (in a specified ratio) required to produce a median effect, e.g., IC50. CI<1, =1 or >1 indicates synergism, additive effect, and antagonism respectively.

Structure (SMILES): O=C(/C=C/c1ccccc1)Nc1nc2c(ncn2COCCOC(=O)/C=C/c2ccccc2)c(=O)[nH]1 [Compound 22, N-cinnamoyl-9-(2-cinnamoyloxy)-ethoxymethylguanine]
mitochondrial membrane potential [1]: no apparent effect
level of phosphorylated H2AX [2]: induced an increase in the level of phosphorylated H2AX

Structure (SMILES): CCCC(=O)Nc1nc2c(ncn2COCCOC(=O)CCC)c(=O)[nH]1 [Compound 7, N-butyryl-9-(2-butyryloxy)ethoxymethylguanine]
LD50 at 2 weeks [3]: > 750 mg/kg
Survival (%) ([4]; single per os dose 150 mg/kg): 100%
Survival (%) ([4]; single per os dose 200 mg/kg): 100%
Survival (%) ([4]; single per os dose 250 mg/kg): 100%
Survival (%) ([4]; single per os dose 500 mg/kg): 100%
Survival (%) ([4]; single per os dose 750 mg/kg): 100%
number of lung macro-lesions (anti-metastatic activity) [5]: significant anti-metastatic activity
lung weight ([6]; 25 mg/kg, p<0.05): reduction in lung weight
number of observed lung lesions ([6]; 25 mg/kg, p<0.05): reduction in the number of observed lung lesions
anti-cancer activity (number of metastases and lung weight) [6]: significant anti-cancer activity
levels of acetylated H4 in tumors [7]: significantly higher levels of acetylated H4

Structure (SMILES): CCCCCCCC(=O)Nc1nc2c(ncn2COCCOC(=O)CCCCCCC)c(=O)[nH]1 [Compound 8, N-octanoyl-9-(2-octanoyloxy)ethoxymethylguanine]
anti-cancer activity (number of metastases and lung weight) [6]: little, if any anticancer activity

Structure (SMILES): CCCCCC(=O)Nc1nc2c(ncn2COCCOC(=O)CCCCC)c(=O)[nH]1 [Compound 20, N-hexanoyl-9-(2-hexanoyloxy)-ethoxymethylguanine]
anti-cancer activity (number of metastases and lung weight) [6]: little, if any anticancer activity

Structure (SMILES): CCCC(CCC)C(=O)OCCOCn1cnc2c(=O)[nH]c(N)nc21 [Compound 12, 9-(2-valproyloxy)ethoxymethylguanine]
IC50 [8]: 251 ± 12 µM
IC50 [9]: 241 ± 12 µM
percentage of apoptotic cells [10]: increased the percentage of apoptotic cells in a dose dependent manner
mitochondrial membrane potential [1]: no apparent effect

More lines, main results first:

IC50 [8]: > 750 µM
IC50 [9]: 402 ± 22 µM
Structure (SMILES): CCCC(CCC)C(=O)Nc1nc2c(ncn2COCCO)c(=O)[nH]1 [Compound 23, N-valproyl-9-(2-hydroxy)ethoxymethylguanine]
mitochondrial membrane potential [1]: no apparent effect

inhibitory effect on proteasome activity [12]: only a marginal inhibitory effect
Structure (SMILES): CCCC(CCC)C(=O)O [valproic acid, reference compound]
level of oxidation in cells (ROS) [11]: little if any effect
phase of cell-cycle arrest ([13]; 1 mM): G2-M phase
Percentage of cells in G0-G1 stage ([13]; 1000 μM): 20.3%
Percentage of cells in G2-M stage ([13]; 1000 μM): 47.5%
Percentage of cells in S stage ([13]; 1000 μM): 32.5%

IC50 [15]: 0.0165 µM
Structure (SMILES): COc1cccc2c1C(=O)c1c(O)c3c(c(O)c1C2=O)C[C@@](O)(C(=O)CO)C[C@@H]3O[C@H]1C[C@H](N)[C@H](O)[C@H](C)O1 [doxorubicin, reference compound]
production of ROS [14]: increased dramatically the production of ROS
